Consider 2 compounds from BindingDB's records for doi:10.1016/j.bmc.2020.115681 (Takeda Pharmaceuticals International, 2020).

By IC50 is commonly meant the concentration that gives 50% inhibition.

Experiment [1] addresses T1, Ubiquitin-like modifier-activating enzyme ATG7 (Homo sapiens, UniProt O95352).
T1 sequence (O95352 whole entry): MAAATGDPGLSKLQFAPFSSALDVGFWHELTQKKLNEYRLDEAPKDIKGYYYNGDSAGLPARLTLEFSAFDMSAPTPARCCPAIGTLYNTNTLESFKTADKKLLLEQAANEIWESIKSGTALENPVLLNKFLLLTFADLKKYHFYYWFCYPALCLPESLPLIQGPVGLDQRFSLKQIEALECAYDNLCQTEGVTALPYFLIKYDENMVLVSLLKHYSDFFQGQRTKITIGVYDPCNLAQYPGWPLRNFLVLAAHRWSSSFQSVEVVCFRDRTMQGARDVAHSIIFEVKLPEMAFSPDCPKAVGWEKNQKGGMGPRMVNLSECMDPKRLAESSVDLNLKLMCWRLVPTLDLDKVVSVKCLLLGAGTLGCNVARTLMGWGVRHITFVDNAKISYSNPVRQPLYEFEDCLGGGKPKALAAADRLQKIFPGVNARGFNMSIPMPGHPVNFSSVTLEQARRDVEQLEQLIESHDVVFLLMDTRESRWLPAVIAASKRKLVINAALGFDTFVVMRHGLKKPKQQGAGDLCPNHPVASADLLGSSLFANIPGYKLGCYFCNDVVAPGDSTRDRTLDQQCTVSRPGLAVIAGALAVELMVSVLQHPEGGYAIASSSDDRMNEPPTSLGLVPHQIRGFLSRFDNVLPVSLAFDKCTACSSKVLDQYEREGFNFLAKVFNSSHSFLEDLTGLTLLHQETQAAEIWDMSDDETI
As to the kind of experiment: Inhibition of recombinant His-tagged human ATG7 incubated for 105 mins in presence of GST-tagged ATG3 and Flag-tagged Gabarap and measured after 2 hrs by FRET assay relative to control.

The target in experiment [2] is T1, Ubiquitin-like modifier-activating enzyme ATG7. As to the kind of experiment: Inhibition of ATG7 in human 293HEK cells assessed as inhibition of ATG7:ATG8 thioester formation after 4 hrs by Western blot analysis.

For the compound `Cc1cccc(Sc2nn([C@@H]3O[C@H](COS(N)(=O)=O)[C@@H](O)[C@@H]3F)c3ncnc(N)c23)c1` [[(2R,3R,4S,5R)-5-{4-amino-3-[(3-methylphenyl)sulfanyl]-1H-pyrazolo[3,4-d]pyrimidin-1-yl}-4-fluoro-3-hydroxytetrahydrofuran-2-yl]methyl sulfamate], the IC50 in experiment [1] amounted to 0.035 µM.

Take `CSc1nn([C@H]2C[C@H](O)[C@H](COS(N)(=O)=O)O2)c2ncnc(N)c12` [{(2S,3S,5R)-5-[4-amino-3-(methylsulfanyl)-1H-pyrazolo[3,4-d]pyrimidin-1-yl]-3-hydroxytetrahydrofuran-2-yl}methyl sulfamate]: the half-maximal inhibitory concentration (IC50) in experiment [2] amounted to 0.295 µM.
